Results: patent US11986532B2 (Arvinas Operations, Inc., priority 2021, dated 2024)
Read-outs that look alike come from different tables or passages of the source.

Biological target: T1, BCL6 (Homo sapiens, UniProt P41182)
T1 construct: endogenous in cells; host or cells: T47D breast cancer epithelial cells
Assay: Immunofluorescence protocol for high content imaging of BCL6 (degradation) in T47D cells, 3 days compound treatment
Assay type: cell-based
Settings: for DC50: read-out: Mean DC50 (nM)* category; for Dmax: read-out: Mean Dmax (%)** category
How it was run: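 Remaining BCL6 in breast cancer T47D cells was measured by high-content immunofluorescence imaging after 3 days of treatment with serially diluted compound (top 0.1 or 1 μM). Nuclei were stained with Hoechst and cells with CellMask.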

[1] = T47D cells, 3 days compound treatment

| Structure (SMILES) | DC50 [1] | Dmax [1] | Dmax (T47D) | DC50 |
| --- | --- | --- | --- | --- |
| CNC(=O)COc1cc2cc(Nc3nc(N4CCC(O[C@H]5C[C@H](N6CCC(O)(c7ccc8c(c7F)CN(C7CCC(=O)NC7=O)C8=O)CC6)C5)CC4)ncc3Cl)ccc2n(C(C)C)c1=O (stereo partly drawn) [Compound 277, 2-({6-[(5-chloro-2-{4-[(1r,3r)-3-{4-[2-(2,6-dioxopiperidin-3-yl)-4-fluoro-1-oxo-2,3-dihydro-1H-isoindol-5-yl]-4-hydroxypiperidin-1-yl}cyclobutoxy]piperidin-1-yl}pyrimidin-4-yl)amino]-2-oxo-1-(propan-2-yl)-1,2-dihydroquinolin-3-yl}oxy)-N-methylacetamide] |  |  | 50 to 70% | < 10 nM |
| CNC(=O)COc1cc2cc(Nc3nc(N4CC5C(CN6CCN(c7ccc8c(c7)C(=O)N(C7CCC(=O)NC7=O)C8=O)CC6)C5C4)ncc3Cl)ccc2n(C(C)C)c1=O (stereo not drawn) [Compound 157, 2-{[6-({5-chloro-2-[6-({4-[2-(2,6-dioxopiperidin-3-yl)-1,3-dioxo-2,3-dihydro-1H-isoindol-5-yl]piperazin-1-yl}methyl)-3-azabicyclo [3.1.0]hexan-3-yl]pyrimidin-4-yl}amino)-2-oxo-1-(propan-2-yl)-1,2-dihydroquinolin-3-yl]oxy}-N-methylacetamide] | 10 to 50 nM | < 50% |  |  |
| CNC(=O)COc1cc2cc(Nc3nc(N4CCC(O[C@H]5C[C@H](N6CCC(F)(c7ccc8c(c7F)CN(C7CCC(=O)NC7=O)C8=O)CC6)C5)CC4)ncc3Cl)ccc2n(C(C)C)c1=O (stereo partly drawn) [Compound 278, 2-({6-[(5-chloro-2-{4-[(1r,3r)-3-{4-[2-(2,6-dioxopiperidin-3-yl)-4-fluoro-1-oxo-2,3-dihydro-1H-isoindol-5-yl]-4-fluoropiperidin-1-yl}cyclobutoxy]piperidin-1-yl}pyrimidin-4-yl)amino]-2-oxo-1-(propan-2-yl)-1,2-dihydroquinolin-3-yl}oxy)-N-methylacetamide] |  |  | ≥ 70% | < 10 nM |
| CNC(=O)COc1cc2cc(Nc3nc(N4CCN(C(C)(C)C5CCN(c6cc(F)c7c(c6)CN(C6CCC(=O)NC6=O)C7=O)CC5)CC4)ncc3Cl)ccc2n(C(C)C)c1=O (stereo not drawn) [Compound 76, 2-{[6-({5-chloro-2-[4-(2-{1-[2-(2,6-dioxopiperidin-3-yl)-7-fluoro-1-oxo-2,3-dihydro-1H-isoindol-5-yl]piperidin-4-yl}propan-2-yl)piperazin-1-yl]pyrimidin-4-yl}amino)-2-oxo-1-(propan-2-yl)-1,2-dihydroquinolin-3-yl]oxy}-N-methylacetamide] | < 10 nM | 50 to 70% |  |  |
| CNC(=O)COc1cc2cc(Nc3nc(N4CCC(O[C@H]5C[C@H](N6CCN(c7ccc8c(c7Cl)CN([C@@H]7CCC(=O)NC7=O)C8=O)[C@H](C)C6)C5)CC4)ncc3Cl)ccc2n(C(C)C)c1=O [Compound 268, 2-({6-[(5-chloro-2-{4-[(1r,3r)-3-[(3R)-4-{4-chloro-2-[(3R)-2,6-dioxopiperidin-3-yl]-1-oxo-3H-isoindol-5-yl}-3-methylpiperazin-1-yl]cyclobutoxy]piperidin-1-yl}pyrimidin-4-yl)amino]-1-isopropyl-2-oxoquinolin-3-yl}oxy)-N-methylacetamide] |  |  | ≥ 70% | < 10 nM |
| CNC(=O)COc1cc2cc(Nc3cc(N4CCC(CN5CCC6(CC5)CN(c5ccc7c(c5)CN(C5CCC(=O)NC5=O)C7=O)C6(C)C)CC4)ncc3Cl)ccc2n(C(C)C)c1=O (stereo not drawn) [Compound 233, 2-{[6-({5-chloro-2-[4-({2-[2-(2,6-dioxopiperidin-3-yl)-1-oxo-2,3-dihydro-1H-isoindol-5-yl]-1,1-dimethyl-2,7-diazaspiro[3.5]nonan-7-yl}methyl)piperidin-1-yl]pyridin-4-yl}amino)-2-oxo-1-(propan-2-yl)-1,2-dihydroquinolin-3-yl]oxy}-N-methylacetamide] |  |  | 50 to 70% | < 10 nM |
| CNC(=O)COc1cc2c(F)c(Nc3cc(N4CCC(F)(CN5CCC6(CC5)CN(c5ccc7c(c5)CN(C5CCC(=O)NC5=O)C7=O)C6)CC4)ncc3Cl)ccc2n(C(C)C)c1=O (stereo not drawn) [Compound 262, 2-{[6-({5-chloro-2-[4-({2-[2-(2,6-dioxopiperidin-3-yl)-1-oxo-2,3-dihydro-1H-isoindol-5-yl]-2,7-diazaspiro[3.5]nonan-7-yl}methyl)-4-fluoropiperidin-1-yl]pyridin-4-yl}amino)-5-fluoro-2-oxo-1-(propan-2-yl)-1,2-dihydroquinolin-3-yl]oxy}-N-methylacetamide] |  |  | 50 to 70% | < 10 nM |
| CNC(=O)COc1cc2cc(Nc3nc(N4CCC(O[C@H]5CC[C@H](N(C)C6CN(c7cccc8c7C(=O)N(C7CCC(=O)NC7=O)C8=O)C6)CC5)CC4)ncc3Cl)ccc2n(C(C)C)c1=O (stereo partly drawn) [Compound 108, 2-[(6-{[5-chloro-2-(4-{[(1r,4r)-4-({1-[2-(2,6-dioxopiperidin-3-yl)-1,3-dioxo-2,3-dihydro-1H-isoindol-4-yl]azetidin-3-yl}(methyl)amino)cyclohexyl]oxy}piperidin-1-yl)pyrimidin-4-yl]amino}-2-oxo-1-(propan-2-yl)-1,2-dihydroquinolin-3-yl)oxy]-N-methylacetamide] | < 10 nM | 50 to 70% |  |  |
| CNC(=O)COc1cc2c(F)c(Nc3nc(N4CCN(CC5CCC6(CC5)CN(c5cccc7c5C(=O)N(C5CCC(=O)NC5=O)C7=O)C6)CC4)ncc3Cl)ccc2n(C(C)C)c1=O (stereo not drawn) [Compound 169, 2-{[6-({5-chloro-2-[4-({2-[2-(2,6-dioxopiperidin-3-yl)-1,3-dioxo-2,3-dihydro-1H-isoindol-4-yl]-2-azaspiro[3.5]nonan-7-yl}methyl)piperazin-1-yl]pyrimidin-4-yl}amino)-5-fluoro-2-oxo-1-(propan-2-yl)-1,2-dihydroquinolin-3-yl]oxy}-N-methylacetamide] | < 10 nM | ≥ 70% |  |  |

Now from value to compound, other results behind:

| DC50 [1] | Dmax [1] | Structure (SMILES) | Dmax (T47D) | DC50 |
| --- | --- | --- | --- | --- |
| ≥ 100 nM | ≥ 70% | CNC(=O)COc1cc2cc(Nc3nc(N4CCOC5(CN(CCC6CCN(c7cccc8c7C(=O)N(C7CCC(=O)NC7=O)C8=O)CC6)C5)C4)ncc3Cl)ccc2n(C(C)C)c1=O (stereo not drawn) [Compound 144, 2-{[6-({5-chloro-2-[2-(2-{1-[2-(2,6-dioxopiperidin-3-yl)-1,3-dioxo-2,3-dihydro-1H-isoindol-4-yl]piperidin-4-yl}ethyl)-5-oxa-2,8-diazaspiro[3.5]nonan-8-yl]pyrimidin-4-yl}amino)-2-oxo-1-(propan-2-yl)-1,2-dihydroquinolin-3-yl]oxy}-N-methylacetamide] |  |  |
| < 10 nM | 50 to 70% | CNC(=O)COc1cc2cc(Nc3nc(N4CCC(CN5CCC6(CC5)CN(c5ccc7c(c5F)CN(C5CCC(=O)NC5=O)C7=O)C6)CC4)ncc3Cl)ccc2n(C(C)C)c1=O (stereo not drawn) [Compound 71, 2-{[6-({5-chloro-2-[4-({2-[2-(2,6-dioxopiperidin-3-yl)-4-fluoro-1-oxo-2,3-dihydro-1H-isoindol-5-yl]-2,7-diazaspiro[3.5]nonan-7-yl}methyl)piperidin-1-yl]pyrimidin-4-yl}amino)-2-oxo-1-(propan-2-yl)-1,2-dihydroquinolin-3-yl]oxy}-N-methylacetamide] |  |  |
| < 10 nM | 50 to 70% | CNC(=O)COc1cc2cc(Nc3nc(N4CCC5(CCN(CC6CCN(c7cccc8c7CN(C7CCC(=O)NC7=O)C8=O)CC6)C5)C4)ncc3Cl)ccc2n(C(C)C)c1=O (stereo not drawn) [Compound 12, 2-{[6-({5-chloro-2-[7-({1-[2-(2,6-dioxopiperidin-3-yl)-1-oxo-2,3-dihydro-1H-isoindol-4-yl]piperidin-4-yl}methyl)-2,7-diazaspiro[4.4]nonan-2-yl]pyrimidin-4-yl}amino)-2-oxo-1-(propan-2-yl)-1,2-dihydroquinolin-3-yl]oxy}-N-methylacetamide] |  |  |
